Blank lines part the entries; values can stand above or below the compound they belong to.
Assays:
[1] = cited from earlier work; for bioavailability of the drug: tromethamine or sodium salts, British Pat. No. 2,059,768, German Pat. No. 134,672
[2] = in vivo

SMILES: CC1=C(CC(=O)O)c2cc(F)ccc2C1=Cc1ccc([S+](C)[O-])cc1 (centres unmarked) [sulindac]
duration of action ([1]; NSAID, reduction-oxidation prodrug): long duration of action
onset of activity ([1]; sulindac, commercialized as CLINORIL): slow onset of activity

SMILES: COc1ccc2c(c1)c(CC(=O)O)c(C)n2C(=O)c1ccc(Cl)cc1 [indomethacin]
bioavailability of the drug [1]: enhanced bioavailability

absorption of sulindac [2]: Extremely rapid absorption
SMILES: CC1=C(CC(=O)O)c2cc(F)ccc2/C1=C\c1ccc([S+](C)[O-])cc1 (centres unmarked) [sodium sulindac]

SMILES: CC(=O)Oc1ccccc1C(=O)O [aspirin]
bioavailability of the drug [1]: enhanced bioavailability

Source: US4704405A (priority 1986, dated 1987)
